Data reported in patent US9085550B2, “Ligands for estrogen related receptors and methods for synthesis of said ligands” (CITY OF HOPE, priority 2005, dated 2015).
Blank lines part the entries; values can stand above or below the compound they belong to.

Key:
[1] = molecular target: T1, GAL-hERRa (human ERRα ligand binding domain fused to GAL4 DNA binding domain) (Homo sapiens, UniProt P11474); assay: GAL4 reporter transactivation assay in CV-1 cells, GAL-hERRa; format: cell-based; settings: for Fold activation, GAL-hERRa + PGC-1a / Fold activation, GAL-hERRa / Fold activation, Receptor ERRα: CV-1; for Fold activation, GAL-hERRa + PGC-1a: reporter 0.42:vector 0.00875:PGC-1a 0.035; for Fold activation, GAL-hERRa: reporter 0.42:vector 0.00875, no PGC-1a; for Activation of ERRα: in the presence of PGC-1a; for Fold activation, Receptor ERRα: Table 1, reporter 0.42:receptor vector 0.035:PGC-1a 0.035
T1 construct: expressed in transfected cells; host or cells: CV-1
T1 sequence (P11474 193-421 limits assumed): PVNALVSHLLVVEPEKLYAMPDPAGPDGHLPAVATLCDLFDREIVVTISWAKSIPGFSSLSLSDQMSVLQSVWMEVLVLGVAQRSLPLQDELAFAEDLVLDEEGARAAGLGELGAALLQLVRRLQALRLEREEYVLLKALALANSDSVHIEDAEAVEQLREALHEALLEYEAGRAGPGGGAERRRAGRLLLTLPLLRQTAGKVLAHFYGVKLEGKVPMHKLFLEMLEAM

[2] = molecular target: T2, GAL-L-hERRb (human ERRβ ligand binding domain fused to GAL4 DNA binding domain) (Homo sapiens, UniProt O95718); assay: GAL4 reporter transactivation assay in CV-1 cells, GAL-L-hERRb; format: cell-based; settings: for Fold activation, GAL-L-hERRb + PGC-1a / Fold activation, GAL-L-hERRb / Fold activation, Receptor ERRβ: CV-1; for Fold activation, GAL-L-hERRb + PGC-1a: reporter 0.42:vector 0.00875:PGC-1a 0.035; for Fold activation, GAL-L-hERRb: reporter 0.42:vector 0.00875, no PGC-1a; for Activation of ERRβ: in the presence of PGC-1a; for Fold activation, Receptor ERRβ: Table 1, reporter 0.42:receptor vector 0.035:PGC-1a 0.035
T2 construct: expressed in transfected cells; host or cells: CV-1
T2 sequence (O95718 208-432 limits assumed): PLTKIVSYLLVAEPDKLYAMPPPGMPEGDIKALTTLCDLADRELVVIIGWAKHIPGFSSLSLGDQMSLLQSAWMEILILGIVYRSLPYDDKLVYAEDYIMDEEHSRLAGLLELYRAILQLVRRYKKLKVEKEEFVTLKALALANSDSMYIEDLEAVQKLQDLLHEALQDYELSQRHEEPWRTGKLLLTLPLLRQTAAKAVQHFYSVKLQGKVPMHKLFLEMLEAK

[3] = molecular target: T3, HRHN-GAL (yeast GAL4 DNA binding domain without receptor sequences) (Saccharomyces cerevisiae, UniProt P04386); assay: GAL4 reporter transactivation assay in CV-1 cells, control vector without receptor; format: cell-based, monkey; settings: for Fold activation, HRHN-GAL: reporter 0.42:vector 0.00875, no PGC-1a
T3 construct: expressed in transfected cells; host or cells: CV-1
T3 sequence (P04386 1-147): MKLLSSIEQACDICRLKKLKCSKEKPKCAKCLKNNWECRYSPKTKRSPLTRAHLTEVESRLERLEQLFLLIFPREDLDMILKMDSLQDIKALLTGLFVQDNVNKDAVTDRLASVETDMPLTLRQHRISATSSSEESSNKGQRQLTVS

[4] = system: estrogen receptor responsive reporter construct; assay: Estrogen receptor responsive reporter in CV-1 cells without receptor (control of Table 1); format: cell-based; settings: Table 1 second block
Experimental: Human ERα and ERβ were examined as full-length proteins using an estrogen receptor responsive reporter construct.
Suitable reporter gene constructs are well known to skilled workers in the fields of biochemistry and molecular biology. […] Other vectors known in the art can be used in the methods of the present invention.
CV-1 cells for the activation assays were grown in Dulbecco's modified Eagle's medium supplemented with 10% resin charcoal-stripped fetal bovine serum, 50 U/ml penicillin G and 50 μg/ml streptomycin sulfate (DMEM-FBS) at 37° C. in 5% CO2. One day prior to transfection, cells were plated to 50-80% confluence using phenol red free DMEM-FBS.

[5] = reporter 0.42:vector 0.00875:PGC-1a 0.035, 0.3 μM
[6] = reporter 0.42:vector 0.00875:PGC-1a 0.035, 1 μM
[7] = reporter 0.42:vector 0.00875:PGC-1a 0.035, 3 μM (first 3 μM column)
[8] = reporter 0.42:vector 0.00875:PGC-1a 0.035, 3 μM (second 3 μM column)
[9] = reporter 0.42:vector 0.00875:PGC-1a 0.035, 10 μM
[10] = reporter 0.42:vector 0.00875:PGC-1a 0.035, 30 μM

- Fold activation, GAL-hERRa + PGC-1a ([1]; 0.3 μM): 1.26 fold
- Fold activation, GAL-hERRa + PGC-1a ([1]; 1 μM): 1.22 fold
- Fold activation, GAL-hERRa + PGC-1a ([1]; 3 μM (first 3 μM column)): 2.11 fold
- Fold activation, GAL-hERRa + PGC-1a ([1]; 3 μM (second 3 μM column)): 1.93 fold
- Fold activation, GAL-hERRa + PGC-1a ([1]; 10 μM): 2.18 fold
- Fold activation, GAL-hERRa + PGC-1a ([1]; 30 μM): 2.36 fold
- Fold activation, GAL-hERRa ([1]; 0.3 μM): 0.77 fold
- Fold activation, GAL-hERRa ([1]; 1 μM): 0.86 fold
- Fold activation, GAL-hERRa ([1]; 3 μM (first 3 μM column)): 0.89 fold
- Fold activation, GAL-hERRa ([1]; 3 μM (second 3 μM column)): 1.51 fold
- Fold activation, GAL-hERRa ([1]; 10 μM): 1.82 fold
- Fold activation, GAL-hERRa ([1]; 30 μM): 2.03 fold
- Activation of ERRα [1]: can activate
- Fold activation, GAL-L-hERRb + PGC-1a ([2]; 0.3 μM): 0.77 fold
- Fold activation, GAL-L-hERRb + PGC-1a ([2]; 1 μM): 0.78 fold
- Fold activation, GAL-L-hERRb + PGC-1a ([2]; 3 μM (first 3 μM column)): 1.06 fold
- Fold activation, GAL-L-hERRb + PGC-1a ([2]; 3 μM (second 3 μM column)): 1.65 fold
- Fold activation, GAL-L-hERRb + PGC-1a ([2]; 10 μM): 1.79 fold
- Fold activation, GAL-L-hERRb + PGC-1a ([2]; 30 μM): 2.61 fold
- Fold activation, GAL-L-hERRb ([2]; 0.3 μM): 1.09 fold
- Fold activation, GAL-L-hERRb ([2]; 1 μM): 1.05 fold
- Fold activation, GAL-L-hERRb ([2]; 3 μM (first 3 μM column)): 0.87 fold
- Fold activation, GAL-L-hERRb ([2]; 3 μM (second 3 μM column)): 0.96 fold
- Fold activation, GAL-L-hERRb ([2]; 10 μM): 1.57 fold
- Fold activation, GAL-L-hERRb ([2]; 30 μM): 1.48 fold
- Activation of ERRβ [2]: can activate
- Fold activation, HRHN-GAL ([3]; 0.3 μM): 1.14 fold
- Fold activation, HRHN-GAL ([3]; 1 μM): 1.07 fold
- Fold activation, HRHN-GAL ([3]; 3 μM (first 3 μM column)): 1.02 fold
- Fold activation, HRHN-GAL ([3]; 3 μM (second 3 μM column)): 1.12 fold
- Fold activation, HRHN-GAL ([3]; 10 μM): 1.26 fold
- Fold activation, HRHN-GAL ([3]; 30 μM): 1.25 fold
- Fold activation, HRHN-GAL + PGC-1a [3, 5]: 1.26 fold
- Fold activation, HRHN-GAL + PGC-1a [3, 6]: 1.17 fold
- Fold activation, HRHN-GAL + PGC-1a [3, 7]: 1.13 fold
- Fold activation, HRHN-GAL + PGC-1a [3, 8]: 1.97 fold
- Fold activation, HRHN-GAL + PGC-1a [3, 9]: 1.68 fold
- Fold activation, HRHN-GAL + PGC-1a [3, 10]: 1.93 fold
Compound: O=C(NN=Cc1ccccc1)c1ccc(O)cc1 [DY162, 4-Hydroxy-benzoic acid benzylidene-hydrazide]

- Fold activation, GAL-hERRa + PGC-1a ([1]; 0.3 μM): 1.69 fold
- Fold activation, GAL-hERRa + PGC-1a ([1]; 1 μM): 2.07 fold
- Fold activation, GAL-hERRa + PGC-1a ([1]; 3 μM (first 3 μM column)): 2.43 fold
- Fold activation, GAL-hERRa + PGC-1a ([1]; 3 μM (second 3 μM column)): 2.47 fold
- Fold activation, GAL-hERRa + PGC-1a ([1]; 10 μM): 3.75 fold
- Fold activation, GAL-hERRa + PGC-1a ([1]; 30 μM): 3.31 fold
- Fold activation, GAL-hERRa ([1]; 0.3 μM): 1.10 fold
- Fold activation, GAL-hERRa ([1]; 1 μM): 0.96 fold
- Fold activation, GAL-hERRa ([1]; 3 μM (first 3 μM column)): 1.55 fold
- Fold activation, GAL-hERRa ([1]; 3 μM (second 3 μM column)): 1.57 fold
- Fold activation, GAL-hERRa ([1]; 10 μM): 1.44 fold
- Fold activation, GAL-hERRa ([1]; 30 μM): 1.87 fold
- Fold activation, Receptor ERRα ([1]; 3 μM): 1.5 fold
- Fold activation, Receptor ERRα ([1]; 10 μM): 1.7 fold
- Fold activation, Receptor ERRα ([1]; 30 μM): 1.6 fold
- Activation of the reporter construct for ERRα ([1]; Table 1 conditions (reporter:Gal-ERR:PGC-1a=0.4:0.035:0.035), any of the concentrations tested): failed to activate
- Activation of the reporter construct for ERRα ([1]; different assay conditions (reporter plasmid:Gal-ERR:PGC-1a=0.4:0.00875:0.035), Table 2): activated
- Activation of ERRα [1]: can activate
- Fold activation, GAL-L-hERRb + PGC-1a ([2]; 0.3 μM): 1.27 fold
- Fold activation, GAL-L-hERRb + PGC-1a ([2]; 1 μM): 1.19 fold
- Fold activation, GAL-L-hERRb + PGC-1a ([2]; 3 μM (first 3 μM column)): 1.80 fold
- Fold activation, GAL-L-hERRb + PGC-1a ([2]; 3 μM (second 3 μM column)): 2.02 fold
- Fold activation, GAL-L-hERRb + PGC-1a ([2]; 10 μM): 2.45 fold
- Fold activation, GAL-L-hERRb + PGC-1a ([2]; 30 μM): 2.52 fold
- Fold activation, GAL-L-hERRb ([2]; 0.3 μM): 0.84 fold
- Fold activation, GAL-L-hERRb ([2]; 1 μM): 1.05 fold
- Fold activation, GAL-L-hERRb ([2]; 3 μM (first 3 μM column)): 1.26 fold
- Fold activation, GAL-L-hERRb ([2]; 3 μM (second 3 μM column)): 1.15 fold
- Fold activation, GAL-L-hERRb ([2]; 10 μM): 2.14 fold
- Fold activation, GAL-L-hERRb ([2]; 30 μM): 2.46 fold
- Fold activation, Receptor ERRβ ([2]; 3 μM): 1.9 fold
- Fold activation, Receptor ERRβ ([2]; 10 μM): 3.1 fold
- Fold activation, Receptor ERRβ ([2]; 30 μM): 3.8 fold
- Fold activation of ERRβ ([2]; Table 1 conditions, concentrations of 10-30 μM): 3-4 fold
- Activation of ERRβ [2]: can activate
- Fold activation, Receptor — (first block) ([3]; Table 1, reporter 0.42:receptor vector 0.035:PGC-1a 0.035, 3 μM): 0.8 fold
- Fold activation, Receptor — (first block) ([3]; Table 1, reporter 0.42:receptor vector 0.035:PGC-1a 0.035, 10 μM): 0.7 fold
- Fold activation, Receptor — (first block) ([3]; Table 1, reporter 0.42:receptor vector 0.035:PGC-1a 0.035, 30 μM): 0.9 fold
- Fold activation, HRHN-GAL ([3]; 0.3 μM): 1.03 fold
- Fold activation, HRHN-GAL ([3]; 1 μM): 0.94 fold
- Fold activation, HRHN-GAL ([3]; 3 μM (first 3 μM column)): 0.74 fold
- Fold activation, HRHN-GAL ([3]; 3 μM (second 3 μM column)): 0.74 fold
- Fold activation, HRHN-GAL ([3]; 10 μM): 0.77 fold
- Fold activation, HRHN-GAL ([3]; 30 μM): 0.79 fold
- Fold activation, HRHN-GAL + PGC-1a [3, 5]: 1.00 fold
- Fold activation, HRHN-GAL + PGC-1a [3, 6]: 0.65 fold
- Fold activation, HRHN-GAL + PGC-1a [3, 7]: 0.72 fold
- Fold activation, HRHN-GAL + PGC-1a [3, 8]: 1.09 fold
- Fold activation, HRHN-GAL + PGC-1a [3, 9]: 0.69 fold
- Fold activation, HRHN-GAL + PGC-1a [3, 10]: 0.81 fold
Compound: CCN(CC)c1ccc(C=NNC(=O)c2ccc(O)cc2)cc1 [DY131, 4-Hydroxy-benzoic acid (4-diethylamino-benzylidene)-hydrazide]
- Fold activation, Receptor — (second block) ([4]; 3 μM): 1.0 fold
- Fold activation, Receptor — (second block) ([4]; 10 μM): 1.1 fold
- Fold activation, Receptor — (second block) ([4]; 30 μM): 1.0 fold
